Several values for one entry are separate records, joined by “and”; a condition that tells them apart may be missing. Equal entries are not always repeated. Where two headings read alike, the source gives them in different places.
Legend:
MAO-B [1] = molecular target: T1, MAO-B (Homo sapiens, UniProt P27338); conditions: read-out: IC50 MAO-B of earlier chalcone derivative; cited from earlier work
T1 construct: purchased Sigma-Aldrich
T1 sequence (P27338 1-520): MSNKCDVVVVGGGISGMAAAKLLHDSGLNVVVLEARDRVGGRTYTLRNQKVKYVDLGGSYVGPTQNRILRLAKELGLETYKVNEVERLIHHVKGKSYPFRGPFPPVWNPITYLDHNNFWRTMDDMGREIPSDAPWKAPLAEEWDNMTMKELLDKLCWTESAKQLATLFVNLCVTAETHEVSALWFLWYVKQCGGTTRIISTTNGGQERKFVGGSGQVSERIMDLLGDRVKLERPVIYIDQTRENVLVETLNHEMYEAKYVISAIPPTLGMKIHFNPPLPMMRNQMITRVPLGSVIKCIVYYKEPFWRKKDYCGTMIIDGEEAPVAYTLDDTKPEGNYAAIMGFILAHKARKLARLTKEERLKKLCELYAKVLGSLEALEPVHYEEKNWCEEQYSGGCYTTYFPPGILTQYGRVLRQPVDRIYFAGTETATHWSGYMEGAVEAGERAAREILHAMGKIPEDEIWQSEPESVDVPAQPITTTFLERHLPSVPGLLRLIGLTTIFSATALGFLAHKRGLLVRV

[2] = molecular target: T2, AChE (Type VI-S from Electrophorus electricus) (Electrophorus electricus, UniProt O42275); assay: AChE inhibition assay (DTNB / acetylthiocholine iodide); type: biochemical; conditions: for remaining activity at 10 µM: read-out: Residual Activity (%) AChE (10 µM)
T2 construct: purchased Sigma-Aldrich Type VI-S
T2 sequence (O42275 24-633): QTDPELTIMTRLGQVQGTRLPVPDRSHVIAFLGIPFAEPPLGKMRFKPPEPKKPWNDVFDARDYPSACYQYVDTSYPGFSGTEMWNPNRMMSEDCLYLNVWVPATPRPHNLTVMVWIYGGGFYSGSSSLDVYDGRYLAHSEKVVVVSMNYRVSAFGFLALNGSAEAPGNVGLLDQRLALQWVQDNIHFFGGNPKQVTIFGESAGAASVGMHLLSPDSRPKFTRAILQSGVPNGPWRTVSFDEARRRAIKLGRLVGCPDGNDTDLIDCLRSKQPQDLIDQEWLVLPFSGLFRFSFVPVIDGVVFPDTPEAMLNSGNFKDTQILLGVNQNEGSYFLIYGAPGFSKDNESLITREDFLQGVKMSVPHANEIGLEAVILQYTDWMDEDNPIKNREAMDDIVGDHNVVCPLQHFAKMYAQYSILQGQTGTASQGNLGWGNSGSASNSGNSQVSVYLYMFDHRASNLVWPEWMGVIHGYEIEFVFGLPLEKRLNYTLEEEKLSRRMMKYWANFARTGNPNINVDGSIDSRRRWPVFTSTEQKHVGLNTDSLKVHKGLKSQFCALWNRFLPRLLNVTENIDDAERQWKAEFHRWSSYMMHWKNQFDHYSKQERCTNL
Method: (§1) AChE activity was measured using Type VI-S from Electrophorus electricus in the presence of 0.5 mM 5,5’-dithiobis(2-nitrobenzoic acid) and 0.5 mM acetylthiocholine iodide, as described previously. Enzymes and chemicals were purchased from Sigma–Aldrich (St. Louis, MO, USA).
Kinetic experiments were carried out at five substrate and three inhibitor concentrations.

MAO-B [3] = molecular target: T1, MAO-B; assay: Kinetics of MAO-B inhibition (Lineweaver-Burk and secondary plots); type: biochemical; conditions: for Mode of MAO-B inhibition: Lineweaver-Burk plots; for Ki: competitive inhibition, secondary plots of slopes vs. inhibitor concentration
Method: (§2) AChE inhibitory activities were also determined, except at a concentration of 10 µM. […] Kinetic experiments were carried out at five substrate and three inhibitor concentrations.

recombinant hMAO-A = molecular target: T3, recombinant hMAO-A (Homo sapiens, UniProt P21397); assay: MAO-A inhibition assay (kynuramine substrate); type: biochemical; conditions: for remaining activity at 1 µM: compound at 1.0 µM, mean ± standard error of duplicate experiments, read-out: Residual Activity (%) MAO-A (1.0 µM); for IC50: mean ± standard error of duplicates, reference compounds after 30 min preincubation with enzyme
T3 construct: purchased Sigma-Aldrich
T3 sequence (P21397 1-527): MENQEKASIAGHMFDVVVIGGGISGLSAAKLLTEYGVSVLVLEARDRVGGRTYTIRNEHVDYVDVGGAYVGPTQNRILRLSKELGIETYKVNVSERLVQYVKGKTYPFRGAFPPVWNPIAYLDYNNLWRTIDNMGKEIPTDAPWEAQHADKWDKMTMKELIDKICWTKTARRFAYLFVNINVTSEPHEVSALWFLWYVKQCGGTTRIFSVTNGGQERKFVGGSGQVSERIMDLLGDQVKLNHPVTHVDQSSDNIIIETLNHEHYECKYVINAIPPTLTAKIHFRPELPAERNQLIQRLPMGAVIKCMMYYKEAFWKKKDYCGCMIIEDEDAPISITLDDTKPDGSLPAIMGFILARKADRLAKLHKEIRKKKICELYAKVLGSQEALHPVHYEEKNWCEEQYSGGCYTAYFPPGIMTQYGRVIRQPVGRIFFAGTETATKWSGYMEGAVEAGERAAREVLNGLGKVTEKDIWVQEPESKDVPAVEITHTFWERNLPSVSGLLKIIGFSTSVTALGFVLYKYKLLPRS
Method: as §1, with “Recombinant hMAO-A and hMAO-B activities were assayed while using kynuramine (0.06 mM) and benzylamine (0.3 mM) as substrates, respectively, as described previously. […] AChE” for “AChE”
as §2

MAO-B [4] = molecular target: T1, MAO-B; assay: biochemical; conditions: for SI (selectivity index, ratio of IC50 MAO-A to MAO-B): MAO-A vs. MAO-B IC50 ratio; for IC50: mean ± standard error of duplicates, reference compounds after 30 min preincubation with enzyme, read-out: IC50 (µM) MAO-B; for remaining activity at 1 µM: read-out: Residual Activity (%) MAO-B (1.0 µM)
Method: as §1, with “Recombinant hMAO-A and hMAO-B activities were assayed while using kynuramine (0.06 mM) and benzylamine (0.3 mM) as substrates, respectively, as described previously. […] AChE” for “AChE”, “USA). […]” for “USA).”

MAO-B [5] = molecular target: T1, MAO-B; assay: Reversibility of MAO-B inhibition by dialysis; type: biochemical; conditions: for Reversibility of MAO-B inhibition: dialysis method
Source text: Relative activities of undialyzed (AU) and dialyzed (AD) samples were used to determine the reversibilities.

[6] = compound at 10 µM, mean ± standard error of duplicate experiments

| SMILES | IC50 (MAO-B [1]) [nM] | IC50 [2] [nM] | remaining activity at 10 µM [2, 6] [%] | Mode of MAO-B inhibition (MAO-B [3]) | Ki (MAO-B [3]) [nM] | remaining activity at 1 µM (recombinant hMAO-A) [%] | IC50 (recombinant hMAO-A) [µM] | MAO-B potency relative to clorgyline (times more potent) (MAO-B [4]) | MAO-B potency relative to lazabemide (times more potent) (MAO-B [4]) | MAO-B potency relative to pargyline (times more potent) (MAO-B [4]) [times] | SI (selectivity index, ratio of IC50 MAO-A to MAO-B) (MAO-B [4]) | IC50 (MAO-B [4]) | remaining activity at 1 µM (MAO-B [4]) [%] | Reversibility of MAO-B inhibition (MAO-B [5]) | Relative MAO-B activity, dialyzed (AD) (MAO-B [5]; ~2 × IC50 of inhibitor, 30 min preincubation, after dialysis) [%] | Relative MAO-B activity, undialyzed (AU) (MAO-B [5]; ~2 × IC50 of inhibitor, 30 min preincubation, undialyzed) [%] | remaining activity at 1 µM (MAO-B [4]; compound at 1.0 µM, mean ± standard error of duplicate experiments) [%] | Residual Activity (%) AChE (10 µM) ([2]; compound at 10 µM, mean ± standard error of duplicate experiments, 10 µM) [%] |
| --- | --- | --- | --- | --- | --- | --- | --- | --- | --- | --- | --- | --- | --- | --- | --- | --- | --- | --- |
| CCO/C(C)=N/Oc1ccc(/C=C/C(=O)c2ccc(F)cc2)cc1 [L3, ethyl (1E)-N-{4-[(1E)-3-(4-fluorophenyl)-3-oxoprop-1-en-1-yl]phenoxy}ethanimidate] | 53 | – | – | – | – | – | – | – | – | – | – | – | – | – | – | – | – | – |
| O=C(/C=C/c1ccc(ON=C2CCCCC2)cc1)c1ccc(F)cc1 [COE-6] | – | > 40000 | 79.4 ± 3.97 | competitively inhibited | 7.5 | 76.8 ± 3.98 | 4 ± 0.021 | 105.6 times and 105 times | 2.33 times and 2.3 times | 1.1 | 222.2 | 0.02 µM and 0.018 µM | -1.06 ± 1.84 | reversible inhibitors | 81.1 | 19.7 | – | – |
| COc1ccc(/C=C/C(=N/Oc2ccc(/C=C/C(=O)c3ccc(F)cc3)cc2)c2ccc(OC)cc2)cc1 [COE-22] | – | – | < 50 | competitively inhibited | 10 | 81.8 ± 0.99 | – | – | – | – | – | 0.028 ± 0.0042 µM | 5.47 ± 0.21 | reversible inhibitors | – | – | – | – |
| COc1cccc(C(=O)/C=C/c2ccc(O/N=C(\C)c3cccc4ccccc34)cc2)c1 [COE-8] | – | > 40000 | 70.7 ± 3.26 | – | – | 68.6 ± 2.74 | 7.68 ± 0.34 | – | – | – | 182.9 | 0.042 ± 0.021 µM | – | – | – | – | 10.5 ± 0.21 | – |
| COc1ccc(C(/C=C/c2ccccc2)=N\Oc2ccc(/C=C/C(=O)c3ccc(C)cc3)cc2)cc1 [COE-21] | – | 9650 ± 1200 | < 50 | – | – | 85.8 ± 1.47 | 15.9 ± 0.59 | – | – | – | 441.7 | 0.036 ± 0.0019 µM | -2.19 ± 0.08 | – | – | – | – | 49.4 ± 2.90 |
